Reference: patent US8268881B2, “Carboxamide derivatives as muscarinic receptor antagonists” (Pfizer Limited, priority 2005, dated 2012)

These compounds were tested against T1, human muscarinic M3 receptor (Homo sapiens, UniProt P20309) (assay: hM3 β-Lac potency assay (cell based β-lactamase)). Conditions: CHO cells expressing human M3 receptor, NFAT β-lactamase reporter; […]; IC50 converted to Ki by Cheng-Prusoff; read-out: Cell based β-lactamase M3 Ki.
T1 construct: expressed in transfected cells
T1 sequence (P20309 whole entry): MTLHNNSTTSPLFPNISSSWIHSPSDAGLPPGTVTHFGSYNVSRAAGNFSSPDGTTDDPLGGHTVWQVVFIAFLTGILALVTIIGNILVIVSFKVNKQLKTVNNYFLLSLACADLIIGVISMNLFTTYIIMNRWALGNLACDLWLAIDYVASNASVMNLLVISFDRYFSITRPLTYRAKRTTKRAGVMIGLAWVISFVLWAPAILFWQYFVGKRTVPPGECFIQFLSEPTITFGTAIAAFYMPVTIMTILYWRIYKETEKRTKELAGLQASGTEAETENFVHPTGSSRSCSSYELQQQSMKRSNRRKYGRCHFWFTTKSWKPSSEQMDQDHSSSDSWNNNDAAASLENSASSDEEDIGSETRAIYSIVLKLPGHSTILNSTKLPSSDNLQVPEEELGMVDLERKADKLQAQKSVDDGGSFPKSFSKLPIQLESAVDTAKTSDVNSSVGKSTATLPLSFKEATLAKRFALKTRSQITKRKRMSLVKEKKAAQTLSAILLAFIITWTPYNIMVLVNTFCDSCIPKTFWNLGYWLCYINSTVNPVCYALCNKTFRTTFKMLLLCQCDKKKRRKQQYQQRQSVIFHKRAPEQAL
Experimental: M3 potency was determined in CHO-K1 cells transfected with the NFAT-Betalactamase gene. CHO (Chinese Hamster Ovary) cells recombinantly expressing the human muscarinic M3 receptor were transfected with the NFAT_β-Lac_Zeo plasmid.
The cells were re-suspended at 2×10^5 cells/ml in growth medium (composition as described above). […] Inhibition curves were plotted and IC50 values generated using a 4-parameter sigmoid fit and converted to Ki values using the Cheng-Prusoff correction and the KD value for carbamyl choline in the assay.

| Compound | Ki |
| --- | --- |
| COc1cccc(OC2CN(C(C)(C)CCC(C#N)(c3ccccc3)c3ccccc3)C2)c1 [Example 99, 5-[3-(3-Methoxyphenoxy)azetidin-1-yl]-5-methyl-2,2-diphenylhexanenitrile] | 65.7 nM |
| CC(C)(CCC(C#N)(c1ccccc1)c1ccccc1)N1CC(OCc2ccc(O)cc2)C1 [Example 151, 5-{3-[(4-Hydroxybenzyl)oxy]azetidin-1-yl}-5-methyl-2,2-diphenylhexanenitrile] | 0.191 nM |

Same assay, conditions: CHO cells expressing human M3 receptor, NFAT β-lactamase reporter; inhibition of 80 nM carbamyl choline signal, 4 h; IC50 converted to Ki by Cheng-Prusoff; read-out: Cell based β-lactamase M3 Ki

| Compound | Ki |
| --- | --- |
| COc1cccc(OC2CN(C(C)(C)CCC(C(N)=O)(c3ccccc3)c3ccccc3)C2)c1 [Example 100, 5-[3-(3-Methoxyphenoxy)azetidin-1-yl]-5-methyl-2,2-diphenylhexanamide] | 0.43 nM |
| COc1ccc(OC2CN(C(C)(C)CCC(C#N)(c3ccccc3)c3ccccc3)C2)cc1 [Example 105, 5-[3-(4-Methoxyphenoxy)azetidin-1-yl]-5-methyl-2,2-diphenylhexanenitrile] | 1.94 nM |
| COc1cc(OC2CN(C(C)(C)CCC(C(N)=O)(c3ccccc3)c3ccccc3)C2)ccc1Cl [Example 113, 5-[3-(4-Chloro-3-methoxy-phenoxy)-azetidin-1-yl]-5-methyl-2,2-diphenylhexanamide] | 7.22 nM |
| CC(C)(CCC(C(N)=O)(c1ccccc1)c1ccccc1)N1CC(Oc2ccc(Cl)c(O)c2)C1 [Example 114, 5-[3-(4-Chloro-3-hydroxy-phenoxy)-azetidin-1-yl]-5-methyl-2,2-diphenylhexanamide] | 1.94 nM |
| CC(C)(CCC(C(N)=O)(c1ccccc1)c1ccccc1)N1CC(Oc2cc(O)cc(F)c2)C1 [Example 121, 5-{3-(3-Fluoro-5-hydroxy-phenoxy)-azetidin-1-yl}-5-methyl-2,2-diphenylhexanamide] | 0.604 nM |
| CC(C)(CCC(C(N)=O)(c1ccccc1)c1ccccc1)N1CC(Oc2cc(O)cc(Cl)c2)C1 [Example 124, 5-[3-(3-Chloro-5-hydroxy-phenoxy)-azetidin-1-yl]-5-methyl-2,2-diphenylhexanamide] | 0.223 nM |
| CC(C)(CCC(C(N)=O)(c1ccccc1)c1ccccc1)N1CC(Oc2ccc(F)cc2O)C1 [Example 127] | 110 nM |
| NC(=O)C(CCC1(N2CC(Oc3ccc(Cl)c(O)c3)C2)CCCC1)(c1ccccc1)c1ccccc1 [Example 139, 4-{1-[3-(4-Chloro-3-hydroxy-phenoxy)-azetidin-1-yl]-cyclopentyl}-2,2-diphenyl-butyramide] | 5.39 nM |
| CC(C)(CCC(C(N)=O)(c1ccccc1)c1ccccc1)N1CC(Oc2cc(O)cc(Br)c2)C1 [Example 142, 5-[3-(3-Bromo-5-hydroxy-phenoxy)-azetidin-1-yl]-5-methyl-2,2-diphenyl-hexanoic acid amide] | 8.05 nM |
| CC(C)(CCC(C(N)=O)(c1ccccc1)c1ccccc1)N1CC(OCc2ccc(O)cc2)C1 [Example 152, 5-[3-(4-Hydroxy-benzyloxy)-azetidin-1-yl]-5-methyl-2,2-diphenyl-hexanoic acid amide] | 0.229 nM |

More lines, now with the values ahead:

| Ki | Compound |
| --- | --- |
| 0.0636 nM | CC(C)(CCC(C(N)=O)(c1ccccc1)c1ccccc1)N1CC(OCc2ccccc2)C1 [Example 102, 5-[3-(Benzyloxy)azetidin-1-yl]-5-methyl-2,2-diphenylhexanamide] |
| 0.0488 nM | CC(C)(CCC(C(N)=O)(c1ccccc1)c1ccccc1)N1CC(Oc2ccccc2)C1 [Example 104, 5-Methyl-5-(3-phenoxyazetidin-1-yl)-2,2-diphenylhexanamide] |
| 0.132 nM | CC(C)(CCC(C(N)=O)(c1ccccc1)c1ccccc1)N1CC(Oc2ccc(O)cc2)C1 [Example 107, 5-[3-(4-hydroxyphenoxy)azetidin-1-yl]-5-methyl-2,2-diphenylhexanamide] |
| 0.201 nM | CC(C)(CCC(C(N)=O)(c1ccccc1)c1ccccc1)N1CC(Oc2cccc(O)c2)C1 [Example 108, 5-[3-(3-Hydroxyphenoxy)azetidin-1-yl]-5-methyl-2,2-diphenylhexanamide] |
| 10.8 nM | CC(C)(CCC(C(N)=O)(c1ccccc1)c1ccccc1)N1CC(Oc2ccccc2O)C1 [Example 109, 5-[3-(2-Hydroxyphenoxy)azetidin-1-yl]-5-methyl-2,2-diphenylhexanamide] |
| 76.9 nM | CC(C)(CCC(C(N)=O)(c1ccccc1)c1ccccc1)N1CC(Oc2cc(Cl)c(Cl)cc2O)C1 [Example 111, 5-{3-(4,5-Dichloro-2-hydroxy-phenoxy)-azetidin-1-yl}-5-methyl-2,2-diphenylhexanamide] |
| 0.176 nM | CC(C)(CCC(C(N)=O)(c1ccccc1)c1ccccc1)N1CC(OCc2cccc(O)c2)C1 [Example 115, 5-[3-(3-Hydroxy-benzyloxy)-azetidin-1-yl]-5-methyl-2,2-diphenyl-hexanoic acid amide] |
| 40.7 nM | CC(C)(CCC(C(N)=O)(c1ccccc1)c1ccccc1)N1CC(Oc2cc(O)ccc2Cl)C1 [Example 118, 5-[3-(2-Chloro-5-hydroxy-phenoxy)-azetidin-1-yl]-5-methyl-2,2-diphenyl-hexanoic acid amide] |
| 8.19 nM | CC(C)(CCC(C(N)=O)(c1ccccc1)c1ccccc1)N1CC(OCc2c(Cl)ccc(O)c2Cl)C1 [Example 128, 5-[3-(2,6-Dichloro-3-hydroxy-benzyloxy)-azetidin-1-yl]-5-methyl-2,2-diphenyl-hexanoic acid amide] |
| 0.468 nM | CC(C)(CCC(C(N)=O)(c1ccccc1)c1ccccc1)N1CC(OCc2ccc(Cl)c(O)c2)C1 [Example 138, 5-[3-(4-Chloro-3-hydroxy-benzyloxy)-azetidin-1-yl]-5-methyl-2,2-diphenyl-hexanoic acid amide] |
| 10.8 nM | NC(=O)C(CCC1(N2CC(Oc3ccc(O)c(F)c3)C2)CCCC1)(c1ccccc1)c1ccccc1 [Example 145, 4-{1-[3-(3-Fluoro-4-hydroxy-phenoxy)-azetidin-1-yl]-cyclopentyl}-2,2-diphenyl-butyramide] |
| 0.247 nM | CC(C)(CCC(C(N)=O)(c1ccccc1)c1ccccc1)N1CC(OCc2ccc(O)c(Cl)c2)C1 [Example 146, 5-[3-(3-Chloro-4-hydroxy-benzyloxy)-azetidin-1-yl]-5-methyl-2,2-diphenyl-hexanoic acid amide] |
| 33.4 nM | CC(C)(CCC(C(N)=O)(c1ccccc1)c1ccccc1)N1CC(OCc2ccc(Cl)cc2O)C1 [Example 147, 5-[3-(4-Chloro-2-hydroxy-benzyloxy)-azetidin-1-yl]-5-methyl-2,2-diphenyl-hexanoic acid amide] |
| 0.353 nM | CC(C)(CCC(C(N)=O)(c1ccccc1)c1ccccc1)N1CC(OCc2cccc(O)c2Cl)C1 [Example 148, 5-[3-(2-Chloro-3-hydroxy-benzyloxy)-azetidin-1-yl]-5-methyl-2,2-diphenyl-hexanoic acid amide] |
| 0.714 nM | CC(C)(CCC(C(N)=O)(c1ccccc1)c1ccccc1)N1CC(Oc2cc(O)cc(O)c2)C1 [Example 149, 5-[3-(3,5-Dihydroxy-phenoxy)-azetidin-1-yl]-5-methyl-2,2-diphenyl-hexanoic acid amide] |
| 1.05 nM | CC(C)(CCC(C#N)(c1ccccc1)c1ccccc1)N1CC(Oc2cccc(O)c2)C1 [Example 150, 5-[3-(3-Hydroxy-phenoxy)-azetidin-1-yl]-5-methyl-2,2-diphenyl-hexanenitrile] |
